According to publication PMC6268262, “Improved Antileishmanial Activity of Dppz through Complexation with Antimony(III) and Bismuth(III): Investigation of the Role of the Metal” (Molecules, 2012):
Read-outs that look alike come from different tables or passages of the source.

Assays:
[1] = tested on: L. infantum chagasi (WT) promastigotes, strain BH400; experiment: Antileishmanial activity assay, promastigote growth (absorbance 600 nm), wild-type strain; type: cell-based, Leishmania infantum chagasi; conditions: 72 h, 25 °C
Method: (§1) Leishmania (Leishmania) amazonensis (strain MHOM/BR/1989/BA199) and Leishmania (Leishmania)infantum chagasi (strain MCAN/BR/2002/BH400) promastigotes were maintained in minimum essential culture medium (α-MEM) (Gibco, Invitrogen, Grand Island, NY, USA) supplemented with 10% (v/v) heat inactivated fetal calf serum (Cultilab, Campinas, SP, Brazil), […] kanamycin, […] ampicillin, 2 mM L-glutamine, 5 mg/mL hemin, 5 mM biopterin, (Sigma-Aldrich), pH 7.0 and incubated at 25 °C. L. amazonensis and L. infantum chagasi were selected for Sb(III) resistance as previously decribed. The Sb(III)-resistant mutants L. amazonensis BA199Sb2700.2 and L. infantum chagasi BH400Sb2700.2 were selected in 25 cm^2 flasks containing 5 mL of α-MEM in the presence of increasing Sb(III) concentrations up to 2,700 μM.
(§2) Complexes 1 and 2 were evaluated in vitro for their activity against both Sb(III)-sensitive and -resistant Leishmania parasites. Log-phase L. amazonensis and L. infantum chagasi promastigotes (1 × 10^6 parasites/mL) were seeded in 24-wells cell culture plates with 1.5 mL of α-MEM, incubated under shaking at 25 °C during 72 h in the presence of several concentrations of complex 1 or 2. Controls were performed using cultures in the presence of potassium antimonyl tartrate, SbCl3, BiCl3 and dppz itself. Non-treated parasites were established for growth comparison. Stock solutions of dppz, its complexes, SbCl3 and BiCl3 were dissolved in DMSO (5 M) and diluted in α-MEM cell culture medium to obtain the range of tested concentrations. […] For drug susceptibility assay, Leishmania growth curves were constructed by measuring absorbance at 600 nm. […] All experiments were done at least three times as independent experiments performed in triplicate.
(§3) The IC50 and CC50 values were calculated by nonlinear regression using the software GraphPad Prism 5.0. The acceptable level of significance was 95% (p < 0.05).

[2] = tested on: L. amazonensis (SbR) promastigotes, BA199Sb2700.2; experiment: Antileishmanial activity assay, promastigote growth, Sb-resistant mutant; type: cell-based, Leishmania amazonensis; conditions: 72 h, read-out: IC50 (μM) ± SEM
Method: as §1, §2, §3

[3] = tested on: L. amazonensis (WT) promastigotes, strain BA199; experiment: Antileishmanial activity assay, promastigote growth, wild-type strain; type: cell-based, Leishmania amazonensis; conditions: 72 h, 25 °C
Method: as §1, §2, §3

[4] = tested on: L. infantum chagasi (SbR) promastigotes, BH400Sb2700.2; experiment: Antileishmanial activity assay, promastigote growth, Sb-resistant mutant; type: cell-based, Leishmania infantum chagasi; conditions: 72 h, read-out: IC50 (μM) ± SEM
Method: as §1, §2, §3

Leishmania promastigotes = experiment: microbe, parasite or virus in culture; type: cell-based, Leishmania infantum chagasi and Leishmania amazonensis; conditions: for concentration in whose presence Sb-resistant lines failed to grow: L. infantum chagasi BH400 Sb2700.2 and L. amazonensis BA199 Sb2700.2
Method: as §1, §2

[5] = tested on: mouse peritoneal macrophages; experiment: Cytotoxicity assay against peritoneal macrophages (MTT); type: cell-based
Method: (§4) Macrophages were obtained by lavage of peritoneal cavity of mice with 10 mL cold RPMI without FBS. After washing, the cell suspension (4.0 × 10^6/mL) was seeded (0.1 mL) in 96-well flat bottom plates. Macrophages were allowed to adhere for 2 h and non-adherent cells were removed by washing with RPMI. Then, the studied compounds were added to the wells at concentrations ranging from 1 to 20 μM and the cells were further cultured in RPMI-1640 supplemented with 10% FBS for 24 h at 37 °C in a humidified 5% CO2 atmosphere. Thereafter, the medium was replaced with fresh RPMI containing 0.5 mg/mL of MTT and the plates were incubated for additional 4 h. Supernatants were aspirated and the formazan crystals formed were dissolved in 100 μL of DMSO. After 15 min of incubation at room temperature, absorbance of solubilized MTT formazan product was spectrophotometrically measured at 570 nm.
as §3

[6] = as above; type: cell-based, mouse; conditions: mouse peritoneal macrophages, MTT, 24 h
Method: as §4, §3

[7] = Stability of the complexes by UV absorption spectroscopy; type: physicochemical; conditions: 10 µmol·L^−1 in DMSO, DMSO-containing water and octanol, 0 to 4 h
Method: The stability of the complexes was checked by UV absorption spectroscopy. For this purpose, UV absorption spectra were registered at different time intervals (from 0 to 4 h) for dppz and complexes 1 and 2 at 10 µmol·L^−1 in DMSO, DMSO-containing water and octanol.

[8] = n-Octanol/water partition coefficient, Shake-Flask method; type: physicochemical; conditions: phosphate buffer pH 6.8
Method: Then, three different partition system were prepared by adding these solutions to water-saturated octanol, in octanol/water volume ratios, 1:1, 1:2 and 2:1 in duplicate. The mixtures were vortexed for 10 min and then centrifuged for 5 min. The partition coefficients were determined using the absorbance of complexes 1 and 2. Calculated dppz log P value was obtained from the program ALOGPS 2.143 available on line.

[9] = L. amazonensis (SbR) promastigotes, 25 °C
[10] = L. infantum chagasi (SbR) promastigotes, 25 °C
[11] = listed as dppzBiCl3, read-out: IC50 (μM) ± SEM
[12] = listed as dppzSbCl3, read-out: IC50 (μM) ± SEM

| Molecule | IC50 ([1]; read-out: IC50 (μM) ± SEM) [µM] | IC50 [2, 9] [µM] | IC50 ([3]; read-out: IC50 (μM) ± SEM) [µM] | IC50 [4, 10] [µM] | concentration in whose presence Sb-resistant lines failed to grow (Leishmania promastigotes) [µM] | UV absorption spectra as a function of time (stability) [7] | log P (octanol/water partition coefficient) [8] | other results |
| --- | --- | --- | --- | --- | --- | --- | --- | --- |
| [Cl][Bi]([Cl])[Cl] [BiCl3, Bi(III) chloride] | 563 ± 2 | > 500 | 621 ± 2 | > 500 |  |  |  |  |
| c1ccc2nc3c4cccnc4c4ncccc4c3nc2c1 [Dppz, dipyrido[3,2-a:2',3'-c]phenazine] |  |  |  |  |  |  |  | IC50 (Leishmania promastigotes; Leishmania, read-out: IC50 range over strains): 0.8 to 2 µM; IC50 ([1]; Leishmania infantum, read-out: IC50 (μM) ± SEM): 0.81 ± 0.04 µM; SI: selective index ([5]; ratio between CC50 in murine macrophages and IC50 in L. infantum chagasi (WT)): 15.4; CC50 at 24 h [6]: 12.5 µM; IC50 ([2]; Leishmania amazonensis): 2 ± 0.05 µM; IC50 ([3]; Leishmania amazonensis, read-out: IC50 (μM) ± SEM): > 2 µM; IC50 ([4]; Leishmania infantum): 1.86 ± 0.08 µM |
| [Cl][Sb]([Cl])[Cl] [SbCl3, antimony trichloride] | 341 ± 2 | 1503 ± 2 | 362 ± 2 | 462 ± 3 |  |  |  |  |
| O=C([O-])[C@H]([O-])[C@@H]([O-])C(=O)[O-].O=C([O-])[C@H]([O-])[C@@H]([O-])C(=O)[O-].[K+].[K+].[Sb+3].[Sb+3] [TA, potassium antimonyl tartrate] | 100 ± 3 | > 2700 | 83 ± 1 | > 2700 |  |  |  |  |
| [Bi(dppz)Cl3] [complex 2] | ~0.6 | 1.12 ± 0.01 | ~1 | 0.61 ± 0.02 | ≤ 1.12 | did not show significant changes as a function of time | 0.98 ± 0.17 | IC50 [1, 11]: 0.59 ± 0.01 µM; IC50 [3, 11]: 1.07 ± 0.03 µM |
| [Sb(dppz)Cl3] [complex 1] | ~0.6 | 0.92 ± 0.02 | ~1 | 0.57 ± 0.01 | ≤ 1.12 | did not show significant changes as a function of time | 0.94 ± 0.24 | IC50 [1, 12]: 0.62 ± 0.01 µM; CC50 ([5]; read-out: CC50: concentration of dppz which is cytotoxic against 50% of macrophages, mouse peritoneal macrophages, MTT, 24 h): 7 µM; IC50 [3, 12]: 0.95 ± 0.02 µM |
